In ChEMBL document CHEMBL5291721, “A preclinical secondary pharmacology resource illuminates target-adverse drug reaction associations of marketed drugs” (Nat Commun, 2023):

Columns and labels:
B1 bradykinin receptor = target: T1, B1 bradykinin receptor (Homo sapiens, UniProt P46663)
T1 sequence (P46663 whole entry): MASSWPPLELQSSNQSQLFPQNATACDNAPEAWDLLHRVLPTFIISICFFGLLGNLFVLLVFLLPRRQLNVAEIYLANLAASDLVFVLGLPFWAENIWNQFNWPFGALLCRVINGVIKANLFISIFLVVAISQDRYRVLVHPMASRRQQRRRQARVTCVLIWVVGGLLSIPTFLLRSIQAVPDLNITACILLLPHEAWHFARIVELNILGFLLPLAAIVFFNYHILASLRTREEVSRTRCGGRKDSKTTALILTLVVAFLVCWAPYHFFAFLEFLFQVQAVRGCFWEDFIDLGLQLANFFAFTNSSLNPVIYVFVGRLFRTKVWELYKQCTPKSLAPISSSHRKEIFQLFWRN

Cannabinoid receptor 1 = Cannabinoid receptor 1 (Homo sapiens, UniProt P21554); format: functional
D(4) dopamine receptor = target: T2, D(4) dopamine receptor (Homo sapiens, UniProt P21917)
T2 sequence (P21917 whole entry): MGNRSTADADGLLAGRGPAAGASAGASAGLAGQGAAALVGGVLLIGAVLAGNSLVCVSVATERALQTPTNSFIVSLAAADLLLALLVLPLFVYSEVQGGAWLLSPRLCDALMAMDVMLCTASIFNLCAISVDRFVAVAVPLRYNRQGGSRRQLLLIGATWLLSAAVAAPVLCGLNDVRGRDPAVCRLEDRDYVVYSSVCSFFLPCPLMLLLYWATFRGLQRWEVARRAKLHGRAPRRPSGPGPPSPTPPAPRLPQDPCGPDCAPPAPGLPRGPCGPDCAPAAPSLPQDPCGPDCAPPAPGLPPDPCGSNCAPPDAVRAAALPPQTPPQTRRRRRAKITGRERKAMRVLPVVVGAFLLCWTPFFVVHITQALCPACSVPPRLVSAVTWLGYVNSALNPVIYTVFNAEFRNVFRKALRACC

[1] = target: 5-hydroxytryptamine receptor 7 (Homo sapiens, UniProt P34969)
[2] = target: Neurotensin receptor type 1 (Homo sapiens, UniProt P30989)
[3] = target: T3, 5-hydroxytryptamine receptor 1A (Homo sapiens, UniProt P08908)
T3 sequence (P08908 whole entry): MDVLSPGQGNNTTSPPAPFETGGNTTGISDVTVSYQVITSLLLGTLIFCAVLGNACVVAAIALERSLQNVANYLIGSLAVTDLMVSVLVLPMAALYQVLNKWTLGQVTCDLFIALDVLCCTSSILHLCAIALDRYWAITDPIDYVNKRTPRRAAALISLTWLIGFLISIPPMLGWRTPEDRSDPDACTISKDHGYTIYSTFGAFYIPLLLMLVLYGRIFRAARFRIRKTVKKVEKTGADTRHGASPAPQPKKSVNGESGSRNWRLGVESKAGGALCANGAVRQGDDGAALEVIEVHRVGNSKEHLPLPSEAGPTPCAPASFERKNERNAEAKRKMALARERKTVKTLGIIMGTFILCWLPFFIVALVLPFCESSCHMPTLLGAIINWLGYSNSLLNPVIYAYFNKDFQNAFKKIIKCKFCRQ

[4] = target: T4, Alpha-1A adrenergic receptor (Homo sapiens, UniProt P35348)
T4 sequence (P35348 whole entry): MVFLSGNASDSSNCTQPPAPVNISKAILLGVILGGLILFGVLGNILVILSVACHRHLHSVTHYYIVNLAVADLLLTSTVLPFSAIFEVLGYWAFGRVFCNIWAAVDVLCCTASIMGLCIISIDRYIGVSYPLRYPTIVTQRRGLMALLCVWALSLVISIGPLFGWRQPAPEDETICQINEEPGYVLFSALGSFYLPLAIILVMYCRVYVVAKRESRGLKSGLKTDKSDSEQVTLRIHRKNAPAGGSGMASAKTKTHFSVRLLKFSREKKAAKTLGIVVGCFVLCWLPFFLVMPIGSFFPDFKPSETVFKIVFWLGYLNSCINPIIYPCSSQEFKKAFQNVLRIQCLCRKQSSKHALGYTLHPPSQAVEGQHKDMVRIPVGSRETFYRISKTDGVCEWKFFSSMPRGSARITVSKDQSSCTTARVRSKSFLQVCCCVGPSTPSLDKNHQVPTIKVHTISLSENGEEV

[5] = target: Beta-1 adrenergic receptor (Homo sapiens, UniProt P08588); format: functional, cell-based
[6] = target: 5-hydroxytryptamine receptor 2A (Homo sapiens, UniProt P28223)
Histamine H1 receptor [7] = target: T5, Histamine H1 receptor (Homo sapiens, UniProt P35367); format: functional, cell-based
Histamine H1 receptor [8] = target: T5, Histamine H1 receptor; format: functional, cell-based; remark: listed apart in the source
[9] = target: Gamma-aminobutyric acid receptor subunit alpha-1/alpha-2/beta-2/gamma-2 (Homo sapiens, UniProt P14867+P18507+P47869+P47870); format: functional, cell-based
Further: assay procedure not described here.

Beta-1 adrenergic receptor, sequence (P08588 whole entry): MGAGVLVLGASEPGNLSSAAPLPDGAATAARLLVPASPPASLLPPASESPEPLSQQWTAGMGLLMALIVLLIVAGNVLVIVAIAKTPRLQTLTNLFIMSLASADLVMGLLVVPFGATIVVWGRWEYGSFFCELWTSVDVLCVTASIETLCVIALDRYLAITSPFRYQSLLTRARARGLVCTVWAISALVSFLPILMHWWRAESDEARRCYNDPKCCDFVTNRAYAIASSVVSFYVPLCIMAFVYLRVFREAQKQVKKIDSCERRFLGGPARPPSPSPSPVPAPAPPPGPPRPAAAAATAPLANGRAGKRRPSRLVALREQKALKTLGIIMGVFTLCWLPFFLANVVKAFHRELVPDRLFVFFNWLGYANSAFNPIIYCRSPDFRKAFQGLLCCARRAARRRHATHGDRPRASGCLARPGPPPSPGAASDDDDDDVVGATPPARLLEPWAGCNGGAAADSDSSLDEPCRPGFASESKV
5-hydroxytryptamine receptor 7, sequence (P34969 whole entry): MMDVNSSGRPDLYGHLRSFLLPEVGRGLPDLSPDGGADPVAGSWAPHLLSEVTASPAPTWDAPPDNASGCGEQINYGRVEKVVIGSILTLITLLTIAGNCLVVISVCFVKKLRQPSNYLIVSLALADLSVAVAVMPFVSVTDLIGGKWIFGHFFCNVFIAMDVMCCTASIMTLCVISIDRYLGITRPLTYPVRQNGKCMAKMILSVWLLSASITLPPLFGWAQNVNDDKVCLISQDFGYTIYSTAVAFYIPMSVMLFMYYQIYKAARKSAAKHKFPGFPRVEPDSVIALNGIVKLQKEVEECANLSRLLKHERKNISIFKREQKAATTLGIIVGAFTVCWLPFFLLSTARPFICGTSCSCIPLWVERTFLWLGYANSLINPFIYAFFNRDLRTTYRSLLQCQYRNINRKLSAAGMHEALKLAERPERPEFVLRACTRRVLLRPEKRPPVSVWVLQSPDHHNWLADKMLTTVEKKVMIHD
Cannabinoid receptor 1, sequence (P21554 whole entry): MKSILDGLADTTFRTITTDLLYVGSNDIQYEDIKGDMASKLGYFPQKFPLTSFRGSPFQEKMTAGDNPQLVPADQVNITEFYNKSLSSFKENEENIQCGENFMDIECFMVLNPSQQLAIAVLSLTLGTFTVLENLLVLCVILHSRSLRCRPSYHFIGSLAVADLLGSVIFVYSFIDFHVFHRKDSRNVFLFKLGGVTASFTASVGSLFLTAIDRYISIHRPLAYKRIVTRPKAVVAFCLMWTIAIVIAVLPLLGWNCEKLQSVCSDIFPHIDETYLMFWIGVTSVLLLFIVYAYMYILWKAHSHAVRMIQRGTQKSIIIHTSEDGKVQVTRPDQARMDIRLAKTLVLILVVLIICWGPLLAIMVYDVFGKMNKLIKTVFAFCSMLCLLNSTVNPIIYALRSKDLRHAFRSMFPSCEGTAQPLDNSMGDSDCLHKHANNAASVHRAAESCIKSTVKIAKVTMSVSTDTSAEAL
5-hydroxytryptamine receptor 2A, sequence (P28223 whole entry): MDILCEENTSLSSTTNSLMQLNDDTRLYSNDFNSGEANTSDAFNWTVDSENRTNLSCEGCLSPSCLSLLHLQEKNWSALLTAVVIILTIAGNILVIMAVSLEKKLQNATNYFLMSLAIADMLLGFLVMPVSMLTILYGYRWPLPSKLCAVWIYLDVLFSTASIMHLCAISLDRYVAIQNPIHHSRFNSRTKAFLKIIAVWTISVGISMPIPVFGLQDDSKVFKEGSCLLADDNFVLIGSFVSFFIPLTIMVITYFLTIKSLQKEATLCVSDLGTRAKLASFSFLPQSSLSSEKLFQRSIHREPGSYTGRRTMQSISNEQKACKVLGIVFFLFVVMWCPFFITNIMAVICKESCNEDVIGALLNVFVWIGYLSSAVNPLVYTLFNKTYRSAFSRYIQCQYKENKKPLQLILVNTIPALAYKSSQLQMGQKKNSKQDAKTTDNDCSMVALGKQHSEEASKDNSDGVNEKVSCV
Neurotensin receptor type 1, sequence (P30989 whole entry): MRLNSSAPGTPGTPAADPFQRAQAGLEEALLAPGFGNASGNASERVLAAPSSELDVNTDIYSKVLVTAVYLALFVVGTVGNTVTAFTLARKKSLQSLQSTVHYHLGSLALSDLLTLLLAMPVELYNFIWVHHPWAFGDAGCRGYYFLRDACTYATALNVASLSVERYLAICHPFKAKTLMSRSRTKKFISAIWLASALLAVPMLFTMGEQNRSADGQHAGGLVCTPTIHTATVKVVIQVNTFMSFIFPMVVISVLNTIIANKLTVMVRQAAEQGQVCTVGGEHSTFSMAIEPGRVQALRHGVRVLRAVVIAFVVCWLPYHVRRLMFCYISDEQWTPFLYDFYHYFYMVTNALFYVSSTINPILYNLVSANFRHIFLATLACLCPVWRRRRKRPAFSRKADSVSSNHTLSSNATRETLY
T5 sequence (P35367 whole entry): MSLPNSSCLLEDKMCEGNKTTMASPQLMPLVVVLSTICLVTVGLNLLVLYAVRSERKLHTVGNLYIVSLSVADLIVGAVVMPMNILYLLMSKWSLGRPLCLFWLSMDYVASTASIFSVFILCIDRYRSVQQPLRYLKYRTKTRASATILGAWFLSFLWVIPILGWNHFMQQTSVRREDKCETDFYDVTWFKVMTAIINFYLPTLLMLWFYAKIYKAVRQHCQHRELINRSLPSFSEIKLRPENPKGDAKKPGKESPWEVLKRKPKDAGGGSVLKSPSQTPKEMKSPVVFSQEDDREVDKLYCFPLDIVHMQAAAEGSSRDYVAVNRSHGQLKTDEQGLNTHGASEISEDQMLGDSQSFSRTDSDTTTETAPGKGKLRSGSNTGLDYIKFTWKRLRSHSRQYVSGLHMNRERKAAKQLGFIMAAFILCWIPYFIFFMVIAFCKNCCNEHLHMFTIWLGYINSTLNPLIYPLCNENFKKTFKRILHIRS
Gamma-aminobutyric acid receptor subunit alpha-1/alpha-2/beta-2/gamma-2, sequence (P14867 whole entry): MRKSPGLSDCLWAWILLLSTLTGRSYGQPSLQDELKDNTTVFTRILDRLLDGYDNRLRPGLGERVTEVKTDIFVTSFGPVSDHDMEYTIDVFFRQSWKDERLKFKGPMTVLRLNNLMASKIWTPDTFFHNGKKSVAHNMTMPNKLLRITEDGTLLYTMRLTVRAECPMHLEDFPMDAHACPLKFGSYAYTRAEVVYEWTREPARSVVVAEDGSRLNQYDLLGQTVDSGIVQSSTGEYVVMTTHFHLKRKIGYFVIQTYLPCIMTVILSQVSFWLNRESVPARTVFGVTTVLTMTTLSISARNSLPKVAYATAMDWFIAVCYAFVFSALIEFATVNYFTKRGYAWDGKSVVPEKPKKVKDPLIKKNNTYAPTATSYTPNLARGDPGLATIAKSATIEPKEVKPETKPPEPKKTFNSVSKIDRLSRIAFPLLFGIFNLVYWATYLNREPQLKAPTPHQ
Gamma-aminobutyric acid receptor subunit alpha-1/alpha-2/beta-2/gamma-2, sequence (P47870 whole entry): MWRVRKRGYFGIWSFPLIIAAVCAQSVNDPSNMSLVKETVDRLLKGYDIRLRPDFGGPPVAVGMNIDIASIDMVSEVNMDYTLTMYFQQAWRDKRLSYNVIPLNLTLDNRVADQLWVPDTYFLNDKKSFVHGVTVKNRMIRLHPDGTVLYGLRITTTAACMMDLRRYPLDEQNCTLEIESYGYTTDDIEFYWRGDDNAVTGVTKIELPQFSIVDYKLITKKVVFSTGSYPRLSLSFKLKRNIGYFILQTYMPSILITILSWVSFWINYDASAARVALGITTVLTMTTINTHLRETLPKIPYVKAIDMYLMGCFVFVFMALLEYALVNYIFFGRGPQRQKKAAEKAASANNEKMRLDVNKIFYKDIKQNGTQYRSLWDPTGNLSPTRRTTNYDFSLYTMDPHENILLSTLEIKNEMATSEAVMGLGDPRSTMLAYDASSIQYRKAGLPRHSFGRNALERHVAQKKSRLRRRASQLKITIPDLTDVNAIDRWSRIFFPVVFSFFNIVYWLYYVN
Gamma-aminobutyric acid receptor subunit alpha-1/alpha-2/beta-2/gamma-2, sequence (P18507 whole entry): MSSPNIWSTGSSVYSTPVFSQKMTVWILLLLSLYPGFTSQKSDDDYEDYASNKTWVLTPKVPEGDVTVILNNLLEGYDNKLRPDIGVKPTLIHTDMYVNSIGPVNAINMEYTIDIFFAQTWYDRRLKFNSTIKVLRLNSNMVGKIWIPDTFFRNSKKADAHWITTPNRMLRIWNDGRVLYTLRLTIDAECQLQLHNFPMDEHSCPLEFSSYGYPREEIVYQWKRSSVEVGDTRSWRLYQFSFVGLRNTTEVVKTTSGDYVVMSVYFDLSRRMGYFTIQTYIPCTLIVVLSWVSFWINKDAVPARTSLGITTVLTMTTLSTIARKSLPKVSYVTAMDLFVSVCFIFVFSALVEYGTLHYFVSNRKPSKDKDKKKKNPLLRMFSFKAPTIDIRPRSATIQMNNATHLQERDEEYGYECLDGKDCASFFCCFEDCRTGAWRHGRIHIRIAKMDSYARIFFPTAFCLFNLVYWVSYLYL
Gamma-aminobutyric acid receptor subunit alpha-1/alpha-2/beta-2/gamma-2, sequence (P47869 whole entry): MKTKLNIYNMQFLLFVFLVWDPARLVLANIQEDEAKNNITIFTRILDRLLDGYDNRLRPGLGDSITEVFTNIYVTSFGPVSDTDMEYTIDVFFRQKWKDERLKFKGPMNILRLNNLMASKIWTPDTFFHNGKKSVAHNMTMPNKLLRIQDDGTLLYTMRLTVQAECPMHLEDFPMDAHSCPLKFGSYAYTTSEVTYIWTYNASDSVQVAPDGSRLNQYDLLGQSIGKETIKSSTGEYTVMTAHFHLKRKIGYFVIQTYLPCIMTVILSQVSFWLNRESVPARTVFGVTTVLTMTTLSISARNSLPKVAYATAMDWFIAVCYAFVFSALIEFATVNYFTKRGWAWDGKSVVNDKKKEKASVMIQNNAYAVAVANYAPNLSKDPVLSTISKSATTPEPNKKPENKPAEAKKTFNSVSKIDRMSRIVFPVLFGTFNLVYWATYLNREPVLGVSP

[H]/N=C(/N)N[C@H]1[C@H](O)[C@@H](O)[C@H](O[C@@H]2O[C@@H](C)[C@](O)(C=O)[C@H]2O[C@@H]2O[C@@H](CO)[C@H](O)[C@@H](O)[C@@H]2NC)[C@@H](N/C(N)=N\[H])[C@@H]1O [STREPTOMYCIN]
AC50 (B1 bradykinin receptor): > 30 µM | AC50 (Cannabinoid receptor 1): > 10 µM | AC50 (D(4) dopamine receptor): > 10 µM | AC50 [1]: > 10 µM | AC50 [2]: > 30 µM | AC50 [3]: > 10 µM | AC50 [4]: > 10 µM

N=C(N)NCCCCCCC(=O)NC(O)C(=O)NCCCCNCCCN (stereo not given)
AC50 [5]: > 30 µM

CCCCCCOC(=O)CCC(=O)CN [HEXAMINOLEVULINATE]
AC50 [5]: > 30 µM

N#Cc1ccccc1-c1cc(-c2ccccn2)cn(-c2ccccc2)c1=O
AC50 [5]: > 30 µM

N#C[C@@H]1CCCN1C(=O)CNC12CC3CC(CC(O)(C3)C1)C2 [VILDAGLIPTIN]
AC50 (Cannabinoid receptor 1): > 10 µM | AC50 (D(4) dopamine receptor): > 10 µM | AC50 [1]: > 10 µM | AC50 [2]: > 10 µM | AC50 [3]: > 10 µM | AC50 [4]: > 10 µM | AC50 [6]: > 10 µM

COc1c(O[C@@H]2O[C@H](CO)[C@@H](O)[C@H](O)[C@H]2O)cc2c(c1OC)-c1ccc(SC)c(=O)cc1[C@@H](NC(C)=O)CC2 [THIOCOLCHICOSIDE]
AC50 [5]: > 30 µM

NCCCC(O)(P(=O)(O)O)P(=O)(O)O [ALENDRONIC ACID]
AC50 (B1 bradykinin receptor): > 30 µM | AC50 (Cannabinoid receptor 1): > 10 µM | AC50 (D(4) dopamine receptor): > 10 µM | AC50 [1]: > 10 µM | AC50 [2]: > 30 µM | AC50 [3]: > 10 µM | AC50 [4]: > 10 µM

CC(CCc1ccccc1)NC(C)C(O)c1ccc(O)cc1 (stereo not given) [NYLIDRIN]
AC50 (B1 bradykinin receptor): > 30 µM | AC50 (Cannabinoid receptor 1): > 10 µM | AC50 (D(4) dopamine receptor): > 10 µM | AC50 [1]: > 10 µM | AC50 [2]: > 30 µM | AC50 [3]: 3.38 µM | AC50 [6]: 2.5 µM

O=C1Nc2ccc(Cl)cc2C(c2ccccc2)=NC1O (stereo not given) [OXAZEPAM]
AC50 (B1 bradykinin receptor): > 30 µM | AC50 (Cannabinoid receptor 1): > 10 µM | AC50 (D(4) dopamine receptor): > 10 µM | AC50 (Histamine H1 receptor [7]): > 30 µM | AC50 (Histamine H1 receptor [8]): > 30 µM | AC50 [1]: > 10 µM | AC50 [2]: > 30 µM | AC50 [3]: > 10 µM | AC50 [4]: > 10 µM | AC50 [6]: > 10 µM

COC1=C(OC)C(=O)C(CCCCCCCCCCO)=C(C)C1=O [IDEBENONE]
AC50 (B1 bradykinin receptor): > 30 µM | AC50 (Cannabinoid receptor 1): > 10 µM | AC50 (D(4) dopamine receptor): > 10 µM | AC50 [1]: > 10 µM | AC50 [2]: > 30 µM | AC50 [3]: > 10 µM | AC50 [4]: > 10 µM

O=C(CCCN1CCC(n2c(O)nc3ccccc32)CC1)c1ccc(F)cc1 [BENPERIDOL]
AC50 [5]: > 30 µM | AC50 [9]: 20 µM | AC50 [6]: 0.0035 µM

C#C[C@]1(O)CC[C@H]2[C@@H]3CCC4=CC(=O)CCC4=C3C=C[C@@]21CC [GESTRINONE]
AC50 [5]: > 30 µM

O=C1CN=C(c2ccccc2)c2cc(Cl)ccc2N1 [NORDAZEPAM]
AC50 (B1 bradykinin receptor): > 30 µM | AC50 (Cannabinoid receptor 1): 0.0006 µM | AC50 (D(4) dopamine receptor): > 10 µM | AC50 [1]: > 10 µM | AC50 [2]: 14 µM | AC50 [3]: > 10 µM | AC50 [4]: > 10 µM
